Where a chain is given by its changes, count along the chain named. pIC50: −log10 of the molar value.
Experiments:
[1] = molecular target: T1, purified mutant MGL (mut-MGLL 11-313 L179S L186S) (Homo sapiens, UniProt Q99685, L169S/L176S); assay: MGL enzyme activity assay (4MU-B cleavage), mutant MGL; format: biochemical; conditions: mutant MGL 5 nM, 4MU-B 10 μM, 37° C.; read-out: MGL mutant inh IC50
T1 construct: purified mutant MGL (mut-MGLL 11-313 L179S L186S)
T1 sequence (Q99685 1-303 L169S/L176S): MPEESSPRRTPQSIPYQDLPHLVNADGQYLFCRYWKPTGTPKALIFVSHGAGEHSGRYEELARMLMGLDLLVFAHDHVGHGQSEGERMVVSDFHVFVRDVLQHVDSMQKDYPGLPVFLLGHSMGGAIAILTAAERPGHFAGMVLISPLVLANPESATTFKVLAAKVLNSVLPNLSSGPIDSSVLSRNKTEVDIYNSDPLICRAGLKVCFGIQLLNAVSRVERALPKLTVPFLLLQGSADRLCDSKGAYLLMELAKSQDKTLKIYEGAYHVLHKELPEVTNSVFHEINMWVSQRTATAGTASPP
Experimental: All rate-based assays were performed in black 384-well polypropylene PCR microplates (Abgene) in a total volume of 30 μL. Substrate 4-methylumbelliferyl butyrate (4MU-B; Sigma) and either purified mutant MGL (mut-MGLL 11-313 L179S L186S) or purified wild type MGL (wt-MGLL 6H-11-313) were diluted separately into 20 mM PIPES buffer (pH=7.0), containing 150 mM NaCl and 0.001% Tween 20. Compounds of Formula (I) were pre-dispensed (50 nL) into the assay plate using a Cartesian Hummingbird prior to adding 4MU-B (25 μL of 1.2× solution to a final concentration of 10 μM) followed by enzyme (5 μL of a 6× solution to a final concentration of 5 nM) to initiate the reaction. Final compound concentrations ranged from 17 to 0.0003 μM. The fluorescence change due to 4MU-B cleavage was monitored with excitation and emission wavelengths of 335 and 440 nm, respectively, and a bandwidth of 10 nm (Safire^2, Tecan) at 37° C. for 5 min.
The IC50 values for the following compounds were determined using Microsoft Office Excel from a fit of the equation to the concentration-response plot of the fractional activity as a function of inhibitor concentration.

[2] = molecular target: T2, purified wild type MGL (wt-MGLL 6H-11-313) (Homo sapiens, UniProt Q99685); assay: MGL enzyme activity assay (4MU-B cleavage), wild type MGL; format: biochemical; conditions: wild type MGL 5 nM, 4MU-B 10 μM, 37° C.; read-out: MGL wild type inh IC50
T2 construct: purified wild type MGL (wt-MGLL 6H-11-313)
T2 sequence (Q99685 1-303): T1 sequence (Q99685 1-303 L169S/L176S) with S169L, S176L
In short: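 Enzyme in 20 mM PIPES pH 7.0, 150 mM NaCl, 0.001% Tween 20 with 4MU-B at 10 μM final and MGL at 5 nM final; compounds 17 to 0.0003 μM final, enzyme added last. Fluorescence (ex 335/em 440 nm) followed at 37° C for 5 min; IC50 from fit of fractional activity versus inhibitor concentration.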

pIC50 [1]	pIC50 [2]	SMILES
4.87	–	O=C(c1ccc(-c2ccccc2)cc1)N1CC(N[C@@H]2CN(C(=O)c3ccccc3)C[C@H]2O)C1 (relative stereo) [Cpd 78, trans-4-{[1-(Biphenyl-4-ylcarbonyl)azetidin-3-yl]amino}-1-(phenylcarbonyl)pyrrolidin-3-ol]
4.96	–	O=C(c1ccc(-c2ccccc2)cc1)N1CC(N[C@H]2CCN(C(=O)c3cc4ccccc4o3)C2)C1 [Cpd 47, (3S)-1-(1-Benzofuran-2-ylcarbonyl)-N-[1-(biphenyl-4-ylcarbonyl)azetidin-3-yl]pyrrolidin-3-amine]
5.05	–	O=C(c1ccc(-c2ccccc2)cc1)N1CC(N[C@H]2CCN(C(=O)c3cc4ccccc4s3)C2)C1 [Cpd 48, (3S)-1-(1-Benzothiophen-2-ylcarbonyl)-N-[1-(biphenyl-4-ylcarbonyl)azetidin-3-yl]pyrrolidin-3-amine]
6.45	6.32	O=C(c1ccccc1)N1CC[C@H](NC2CN(C(=O)c3cc4cc(Br)ccc4s3)C2)C1 [Cpd 49, (3S)-N-{1-[(5-Bromo-1-benzothiophen-2-yl)carbonyl]azetidin-3-yl}-1-(phenylcarbonyl)pyrrolidin-3-amine]
6.64	> 8.30	O=C(c1ccccc1)N1CC[C@H](NC2CN(C(=O)c3cc4cc(-c5cccc(C(F)(F)F)c5)ccc4s3)C2)C1 [Cpd 51, (3S)-1-(Phenylcarbonyl)-N-[1-({5-[3-(trifluoromethyl)phenyl]-1-benzothiophen-2-yl}carbonyl)azetidin-3-yl]pyrrolidin-3-amine]
< 4.78	–	O=C(c1ccc(-c2ccccc2)cc1)N1CC(N[C@@H]2CN(C(=O)c3ccccc3)CC2F)C1 (stereo partly drawn) [Cpd 60, (3R)-N-[1-(Biphenyl-4-ylcarbonyl)azetidin-3-yl]-4-fluoro-1-(phenylcarbonyl)pyrrolidin-3-amine]
6.99	–	O=C(c1ccccc1)N1CC[C@H](NC2CN(C(=O)c3sc4ccccc4c3-c3ccccc3)C2)C1 [Cpd 65, (3S)-N-{1-[(3-Phenyl-1-benzothiophen-2-yl)carbonyl]azetidin-3-yl}-1-(phenylcarbonyl)pyrrolidin-3-amine]
6.67	–	O=C(c1ccccc1)N1CC[C@H](NC2CN(C(=O)c3sc4ccccc4c3C3CC3)C2)C1 [Cpd 66, (3S)-N-{1-[(3-Cyclopropyl-1-benzothiophen-2-yl)carbonyl]azetidin-3-yl}-1-(phenylcarbonyl)pyrrolidin-3-amine]
6.70	–	O=C(c1ccccc1)N1CCC(NC2CN(C(=O)c3ccc(C(F)c4ccc(C(F)(F)F)cc4)cc3)C2)C1 (stereo not shown) [Cpd 69, N-{1-[(4-{Fluoro[4-(trifluoromethyl)phenyl]methyl}phenyl)carbonyl]azetidin-3-yl}-1-(phenylcarbonyl)pyrrolidin-3-amine]
5.25	–	COC1CN(C(=O)c2ccccc2)CC1NC1CN(C(=O)c2ccc(-c3cccc(C(F)(F)F)c3)cc2)C1 (stereo not drawn) [Cpd 71, trans--4-Methoxy-1-(phenylcarbonyl)-N-(1-{[3′-(trifluoromethyl)biphenyl-4-yl]carbonyl}azetidin-3-yl)pyrrolidin-3-amine]

Further lines, the molecule ahead of its results:

SMILES	pIC50 [1]	pIC50 [2]
O=C(c1ccc(-c2ccccc2)cc1)N1CC(N[C@H]2CCN(C(=O)c3nccs3)C2)C1 [Cpd 1, (3S)-N-[1-(Biphenyl-4-ylcarbonyl)azetidin-3-yl]-1-(1,3-thiazol-2-ylcarbonyl)pyrrolidin-3-amine]	6.94	–
O=C(c1ccc(-c2ccccc2)cc1)N1CC(N[C@H]2CCN(C(=O)c3ccccc3)C2)C1 [Cpd 2, (3S)-N-[1-(Biphenyl-4-ylcarbonyl)azetidin-3-yl]-1-(phenylcarbonyl)pyrrolidin-3-amine]	6.91	–
O=C(c1ccc(Cc2ccccc2)cc1)N1CC(N[C@@H]2CCN(C(=O)c3nccs3)C2)C1 [Cpd 6, (3R)-N-{1-[(4-Benzylphenyl)carbonyl]azetidin-3-yl}-1-(1,3-thiazol-2-ylcarbonyl)pyrrolidin-3-amine]	6.31	–
O=C(c1ccc(Cc2ccccc2)cc1)N1CC(N[C@@H]2CCN(C(=O)c3ccccc3)C2)C1 [Cpd 7, (3R)-N-{1-[(4-Benzylphenyl)carbonyl]azetidin-3-yl}-1-(phenylcarbonyl)pyrrolidin-3-amine]	5.69	–
O=C(c1nccs1)N1CC[C@H](NC2CN(C(=O)N3CCc4cc(Br)ccc4C3)C2)C1 [Cpd 10, (S)-(3-((1-(6-Bromo-1,2,3,4-tetrahydroisoquinoline-2-carbonyl)azetidin-3-yl)amino)pyrrolidin-1-yl)(thiazol-2-yl)methanone]	5.54	–
O=C(c1nccs1)N1CC[C@H](NC2CN(C(=O)N3CCc4cc(-c5ccccc5)ccc4C3)C2)C1 [Cpd 11, (S)-(3-((1-(6-Phenyl-1,2,3,4-tetrahydroisoquinoline-2-carbonyl)azetidin-3-yl)amino)pyrrolidin-1-yl)(thiazol-2-yl)methanone]	6.46	–
O=C(c1nccs1)N1CC[C@H](NC2CN(C(=O)N3Cc4ccc(Br)cc4C3)C2)C1 [Cpd 12, (3S)-N-{1-[(5-Bromo-1,3-dihydro-2H-isoindol-2-yl)carbonyl]azetidin-3-yl}-1-(1,3-thiazol-2-ylcarbonyl)pyrrolidin-3-amine]	5.21	–
O=C(c1nccs1)N1CC[C@H](NC2CN(C(=O)N3Cc4ccc(-c5ccccc5)cc4C3)C2)C1 [Cpd 13, (3S)-N-{1-[(5-Phenyl-1,3-dihydro-2H-isoindol-2-yl)carbonyl]azetidin-3-yl}-1-(1,3-thiazol-2-ylcarbonyl)pyrrolidin-3-amine]	6.14	–
O=C(c1ccccc1)N1CC[C@H](NC2CN(C(=O)c3cc4cc(C(F)(F)F)ccc4s3)C2)C1 [Cpd 19, (3S)-1-(Phenylcarbonyl)-N-(1-{[5-(trifluoromethyl)-1-benzothiophen-2-yl]carbonyl}azetidin-3-yl)pyrrolidin-3-amine]	6.44	–
O=C(c1ccc2c(-c3ccc(OC(F)(F)F)cc3)cccc2c1)N1CC(N[C@H]2CCN(C(=O)c3ccccc3)C2)C1 [Cpd 26, (3S)-1-(Phenylcarbonyl)-N-[1-({5-[4-(trifluoromethoxy)phenyl]naphthalen-2-yl}carbonyl)azetidin-3-yl]pyrrolidin-3-amine]	6.90	–
O=C(c1ccc(-c2ccc(C(F)(F)F)cc2)cc1)N1CC(N[C@H]2CCN(C(=O)c3ccccc3)C2)C1 [Cpd 35, (3S)-1-(Phenylcarbonyl)-N-(1-{[4′-(trifluoromethyl)biphenyl-4-yl]carbonyl}azetidin-3-yl)pyrrolidin-3-amine]	6.80	–
O=C(c1ccc(-c2ccc(OC(F)(F)F)cc2)cc1)N1CC(N[C@H]2CCN(C(=O)c3ccccc3)C2)C1 [Cpd 36, (3S)-1-(Phenylcarbonyl)-N-(1-{[4′-(trifluoromethoxy)biphenyl-4-yl]carbonyl}azetidin-3-yl)pyrrolidin-3-amine]	6.72	–
O=C(c1ccccc1)N1CC[C@H](NC2CN(C(=O)c3cc4ccc(Br)cc4s3)C2)C1 [Cpd 38, (3S)-N-{1-[(6-Bromo-1-benzothiophen-2-yl)carbonyl]azetidin-3-yl}-1-(phenylcarbonyl)pyrrolidin-3-amine]	6.52	–
O=C(c1ccccc1)N1CC[C@H](NC2CN(C(=O)c3cc4ccc(-c5ccc(C(F)(F)F)cc5)cc4s3)C2)C1 [Cpd 43, (3S)-1-(Phenylcarbonyl)-N-[1-({6-[4-(trifluoromethyl)phenyl]-1-benzothiophen-2-yl}carbonyl)azetidin-3-yl]pyrrolidin-3-amine]	6.57	–
O=C(c1ccc(-c2ccccc2)cc1)N1CC(N[C@H]2CCN(C(=O)c3ccc(F)cc3)C2)C1 [Cpd 45, (3S)-N-[1-(Biphenyl-4-ylcarbonyl)azetidin-3-yl]-1-[(4-fluorophenyl)carbonyl]pyrrolidin-3-amine]	5.79	–
O=C(c1ccc(-c2ccccc2)cc1)N1CC(N[C@H]2CCN(C(=O)c3cccc(F)c3)C2)C1 [Cpd 46, (3S)-N-[1-(Biphenyl-4-ylcarbonyl)azetidin-3-yl]-1-[(3-fluorophenyl)carbonyl]pyrrolidin-3-amine]	6.47	–

Source: US8748417B2, “Amino-pyrrolidine-azetidine diamides as monoacylglycerol lipase inhibitors” (Janssen Pharmaceutica, NV, priority 2010, dated 2014)
